Patent US20190218226A1, “PRODRUGS OF ANTICANCER AGENTS INDOTECAN AND INDIMITECAN” (Purdue Research Foundation, priority 2016, published 2019)

Experiments:
SN12C = experiment: NCI60 antiproliferative screen, renal SN12C; format: cell-based, human; conditions: Homo sapiens, 48 h, sulforhodamine B, read-out: Cytotoxicity (GI50) renal SN12C
Protocol: (§1) All of the indenoisoquinolines were tested for antiproliferative activity in the National Cancer Institute's 60 cell line screen (NCI60). The cells were incubated with the tested compounds at 100, 10, 1, 0.1, and 0.01 μM concentrations for 48 h before treatment with sulforhodamine B dye. Optical densities were recorded, and their ratios relative to that of the control were plotted as percentage growth against the log 10 of the tested compound concentrations. The concentration that corresponds to 50% growth inhibition (GI50) is calculated by interpolation between the points located above and below the 50% percentage growth. The mean-graph midpoint (MGM) is an estimated average of the GI50 values derived from the NCI collection of 60 human cancer cell lines, where during the MGM calculation, anticancer agents with GI50 values that are outside the testing range of 0.01-100 μM are arbitrarily assigned the values of 0.01 and 100 μM, respectively. […] Also, the GI50 values of many of the substances vs. individual human cancer cell lines are below the lowest concentration used (0.01 μM) in the standard NCI testing protocol. […] For example, the MGM cytotoxicity values of 9, 15-17, and 19 are all very close to each other, but the Top1 inhibitory activities range from +++(+) to 0.

[1] = tested on: all human cancer cell lines successfully tested (NCI60); experiment: NCI60 mean graph midpoint for growth inhibition; format: cell-based; conditions: all human cancer cell lines successfully tested; ± standard error; read-out: MGM (mean graph midpoint for growth inhibition)
Protocol: as §1

HOP-62 = experiment: NCI60 antiproliferative screen, lung HOP-62; format: cell-based, human; conditions: Homo sapiens; HOP-62, 48 h, sulforhodamine B; read-out: Cytotoxicity (GI50) lung HOP-62
Protocol: as §1

DU-145 = experiment: NCI60 antiproliferative screen, prostate DU-145; format: cell-based, human; conditions: Homo sapiens; DU-145, 48 h, sulforhodamine B; read-out: Cytotoxicity (GI50) prostate DU-145
Protocol: as §1

HCT-116 = experiment: NCI60 antiproliferative screen, colon HCT-116; format: cell-based, human; conditions: Homo sapiens; HCT-116, 48 h, sulforhodamine B; read-out: Cytotoxicity (GI50) Colon HCT-116
Protocol: as §1

OVCAR-3 = experiment: NCI60 antiproliferative screen, ovarian OVCAR-3; format: cell-based, human; conditions: Homo sapiens; OVCAR-3, 48 h, sulforhodamine B; read-out: Cytotoxicity (GI50) Ovarian OVCAR-3
Protocol: as §1

SF-539 = experiment: NCI60 antiproliferative screen, CNS SF-539; format: cell-based, human; conditions: Homo sapiens; SF-539, 48 h, sulforhodamine B; read-out: Cytotoxicity (GI50) CNS SF-539
Protocol: as §1

MCF-7 = experiment: NCI60 antiproliferative screen, breast MCF-7; format: cell-based, human; conditions: Homo sapiens, MCF7; MCF-7, 48 h, sulforhodamine B; read-out: Cytotoxicity (GI50) breast MCF-7
Protocol: as §1

UACC-62 = experiment: NCI60 antiproliferative screen, melanoma UACC-62; format: cell-based, human; conditions: Homo sapiens; UACC-62, 48 h, sulforhodamine B; read-out: Cytotoxicity (GI50) melanoma UACC-62
Protocol: as §1

Human recombinant Top1 = molecular target: T1, Human recombinant Top1 (Homo sapiens, UniProt P11387); experiment: Top1-mediated DNA cleavage assay; format: biochemical; conditions: graded relative to 1 μM camptothecin
T1 construct: made in house
T1 sequence (P11387 1-765): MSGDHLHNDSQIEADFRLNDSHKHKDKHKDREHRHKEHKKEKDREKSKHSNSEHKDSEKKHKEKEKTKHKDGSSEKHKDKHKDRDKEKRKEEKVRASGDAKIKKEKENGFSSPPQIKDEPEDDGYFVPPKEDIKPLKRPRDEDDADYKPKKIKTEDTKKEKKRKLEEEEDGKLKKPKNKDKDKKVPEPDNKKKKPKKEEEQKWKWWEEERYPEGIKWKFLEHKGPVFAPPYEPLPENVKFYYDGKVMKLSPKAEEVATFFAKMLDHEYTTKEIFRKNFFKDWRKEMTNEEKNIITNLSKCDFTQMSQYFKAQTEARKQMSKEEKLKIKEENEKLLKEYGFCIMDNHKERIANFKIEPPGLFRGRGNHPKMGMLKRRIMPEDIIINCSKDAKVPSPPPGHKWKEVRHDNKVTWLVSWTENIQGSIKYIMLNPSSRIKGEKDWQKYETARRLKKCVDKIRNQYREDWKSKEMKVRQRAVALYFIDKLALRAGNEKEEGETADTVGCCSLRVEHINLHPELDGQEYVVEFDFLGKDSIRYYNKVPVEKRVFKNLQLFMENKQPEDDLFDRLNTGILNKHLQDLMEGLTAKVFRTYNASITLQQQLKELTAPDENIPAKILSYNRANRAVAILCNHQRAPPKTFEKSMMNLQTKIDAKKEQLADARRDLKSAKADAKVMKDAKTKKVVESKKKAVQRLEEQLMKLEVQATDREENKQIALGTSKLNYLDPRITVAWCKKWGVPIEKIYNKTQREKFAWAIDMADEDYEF
Protocol: All of the new indenoisoquinoline derivatives were tested in Top1-mediated DNA cleavage assays. For this purpose, a ^32P 3′-end labeled 117-bp DNA fragment was incubated with Top1 at four concentrations of a tested compound. The DNA fragments were separated on 20% PAGE denaturing gels. The Top1 inhibitory activities were assigned on the basis of the visual inspection of the number and intensities of the gel bands corresponding to Top1-mediated DNA cleavage fragments and scored relative to the Top1 inhibitory activity of compounds 1 and 4. Results are expressed in semiquantitative fashion: 0, no detectable activity; +, weak activity; ++, similar activity to compound 4; +++, greater activity than 4; ++++, equipotent with 1. Ambiguous scores (e.g., between two values) are designated with parentheses (e.g., ++(+) would be between ++ and +++). […] After conversion of the hydroxyl to a dimethylcarbamate, the observed Top1 inhibitory activity increased from ++(+) for compound 8 to +++ for compound 10. Introduction of an acetyl group at the 0-2 position yielded compound 11, which was also a Top1 poison with activity at the ++ level. Subsequently, several hydrophobic substituents were attached to the 0-2 position.
Topoisomerase I-Mediated DNA Cleavage Reactions.
Human recombinant Top1 was purified from baculovirus as previously described (Morrell, A., et al., J. Med. Chem. 2007, 50, 2040-2048). DNA cleavage reactions were prepared as previously reported with the exception of the DNA substrate (Strumberg, D., et al., J. Med. Chem. 1999, 42, 446-457). Briefly, a 117-bp DNA oligonucleotide (Integrated DNA Technologies) encompassing the previously identified Top1 cleavage sites in the 161-bp fragment from pBluescript SK(−) phagemid DNA was employed. This 117-bp oligonucleotide contains a single 5′-cytosine overhang, which was 3′-end-labeled by fill-in reaction with [α-^32P]dGTP in React 2 buffer (50 mM Tris-HCl, pH 8.0, […], 50 mM NaCl) with 0.5 unit of DNA polymerase I (Klenow fragment, New England BioLabs). Unincorporated [^32P]dGTP was removed using mini Quick Spin DNA columns (Roche, Indianapolis, Ind.), and the eluate containing the 3′-end-labeled DNA substrate was collected. Approximately 2 nM radiolabeled DNA substrate was incubated with recombinant Top1 in 20 μL of reaction buffer [10 mM Tris-HCl (pH 7.5), 50 mM KCl, 5 mM MgCl2, 0.1 mM EDTA, and 15 μg/mL BSA] at 25° C. for 20 min in the presence of various concentrations of compounds. The reactions were terminated by adding SDS (0.5% final concentration) followed by the addition of two volumes of loading dye (80% formamide, 10 mM sodium hydroxide, 1 mM sodium EDTA, 0.1% xylene cyanol, and 0.1% bromophenol blue). Aliquots of each reaction mixture were subjected to 20% denaturing PAGE. Gels were dried and visualized by using a phosphoimager and ImageQuant software (Molecular Dynamics). For simplicity, cleavage sites were numbered as previously described in the 161-bp fragment.

- melting point: 274 to 276 °C (dec.)
- Top 1 Cleavage (Human recombinant Top1): + (+, between 20 and 50% activities)
SMILES: COc1cc2c3c(n(CCCN4CCOCC4)c(=O)c2cc1OC(=O)c1cccnc1)-c1cc2c(cc1C3=O)OCO2 [Compound 19, 2-Methoxy-6-(3-morpholinopropyl)-5,12-dioxo-6,12-dihydro-5H-[1,3]dioxolo[4′,5′:5,6]indeno[1,2-c]isoquinolin-3-yl Nicotinate]
- GI50 (SN12C): < 10 nM
- mean GI50 across NCI60 cell lines (MGM) [1]: 35 nM
- GI50 (HOP-62): < 10 nM
- GI50 (DU-145): < 10 nM
- GI50 (HCT-116): < 10 nM
- GI50 (OVCAR-3): 15 nM
- GI50 (SF-539): < 10 nM
- GI50 (MCF-7): < 10 nM
- GI50 (UACC-62): < 10 nM
